One assay addresses human αVβ8 (Homo sapiens, UniProt P06756+P26012). Briefly: human αVβ8 HTRF binding assay. The protocol: (§1) All binding assays used the HTRF (homogeneous time resolved fluorescence) technology from Cisbio International, therefore all assays are described as HTRF binding assays. The assay results for the Examples are listed above together with the characterization data. The HTRF binding assays are established for the following integrins: human αVβ6, human αVβ1, human αVβ3, human αVβ5, and human αVβ8. All assays used the following assay buffer: 20 mM Tris, pH 7.4, 1 mM MgCl2, 1 mM MnCl2, 0.01% Tween 20, and 0.01% BSA. Alternatively, a SPA-based assay was used for evaluation of receptor binding.
(§2) The following describes the components and a representative procedure for the human αVβ6 HTRF binding assay: Recombinant human αVβ6 Integrin (R & D systems, 3817-AV) was biotinylated. Biotinylated human αVβ6 Integrin was added to assay vessel at a final concentration of 1.25 nM. FITC-conjugated fibronectin (Cytoskeleton, FNR02) was then added at the final concentration of 5 nM. The mixture was centrifuged at 600 rpm for three minutes using Thermo Fisher Heraeus Multifuge X3 centrifuge and then incubated at room temperature for an hour. Streptavidin Terbium (Cisbio international 610STLB) was then added at the final concentration of 0.625 nM. The resulting mixture was centrifuged at 600 rpm for three minutes using Thermo Fisher Heraeus Multifuge X3 centrifuge and then incubated at room temperature overnight in dark before reading HTRF signals. […]

The next assay addresses T1, human αVβ6 (Homo sapiens, UniProt P06756+P18564).
T1 construct: purchased R & D systems 3817-AV
Briefly: human αVβ6 HTRF binding assay. The settings on record: recombinant human αVβ6 integrin, FITC-conjugated fibronectin. The gist of the method:
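HTRF binding in 20 mM Tris pH 7.4 with 1 mM MgCl2, 1 mM MnCl2, 0.01% Tween 20 and 0.01% BSA. For αVβ6, biotinylated integrin (1.25 nM) and FITC-fibronectin (5 nM) were incubated 1 h at RT, then streptavidin-terbium (0.625 nM) was added overnight in the dark. An SPA-based fibronectin binding format was an alternative.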

A further assay has as its target human αVβ1 (Homo sapiens, UniProt P05556+P06756). The assay is described as follows: human αVβ1 HTRF binding assay. The protocol: as §1
The following describes the components and a representative procedure for the human αVβ6 HTRF binding assay: Recombinant human αVβ6 Integrin (R & D systems, 3817-AV) was biotinylated. Biotinylated human αVβ6 Integrin was added to assay vessel at a final concentration of 1.25 nM. FITC-conjugated fibronectin (Cytoskeleton, FNR02) was then added at the final concentration of 5 nM. The mixture was centrifuged at 600 rpm for three minutes using Thermo Fisher Heraeus Multifuge X3 centrifuge and then incubated at room temperature for an hour. Streptavidin Terbium (Cisbio international 610STLB) was then added at the final concentration of 0.625 nM. The resulting mixture was centrifuged at 600 rpm for three minutes using Thermo Fisher Heraeus Multifuge X3 centrifuge and then incubated at room temperature overnight in dark before reading HTRF signals.
The SPA-based assay was carried out according to the protocol and procedures similar to the ones described in the following reference with appropriate modifications to agents and ligands which are readily understood by one skilled in the art: Pachter J A, Zhang R, Mayer-Ezell R., “Scintillation proximity assay to measure binding of soluble fibronectin to antibody-captured αVβ1 integrin” Anal Biochem. 1995 Sep. 1; 230(1):101-7.
On the technique in general: In TR-FRET formats the signal depends on donor and acceptor labels being close together.

In another assay the target is human αVβ5 (Homo sapiens, UniProt P06756+P18084). Briefly: human αVβ5 HTRF binding assay. The method, then:
as §1, §2

The target in the next assay is human αVβ3 (Homo sapiens, UniProt P05106+P06756). Briefly: human αVβ3 HTRF binding assay. The method, then:
as §1, §2

Each structure is given as a SMILES string. Counter-ions that a name gives are not always drawn.

Chain of human αVβ3 (P06756 31-992 limits assumed): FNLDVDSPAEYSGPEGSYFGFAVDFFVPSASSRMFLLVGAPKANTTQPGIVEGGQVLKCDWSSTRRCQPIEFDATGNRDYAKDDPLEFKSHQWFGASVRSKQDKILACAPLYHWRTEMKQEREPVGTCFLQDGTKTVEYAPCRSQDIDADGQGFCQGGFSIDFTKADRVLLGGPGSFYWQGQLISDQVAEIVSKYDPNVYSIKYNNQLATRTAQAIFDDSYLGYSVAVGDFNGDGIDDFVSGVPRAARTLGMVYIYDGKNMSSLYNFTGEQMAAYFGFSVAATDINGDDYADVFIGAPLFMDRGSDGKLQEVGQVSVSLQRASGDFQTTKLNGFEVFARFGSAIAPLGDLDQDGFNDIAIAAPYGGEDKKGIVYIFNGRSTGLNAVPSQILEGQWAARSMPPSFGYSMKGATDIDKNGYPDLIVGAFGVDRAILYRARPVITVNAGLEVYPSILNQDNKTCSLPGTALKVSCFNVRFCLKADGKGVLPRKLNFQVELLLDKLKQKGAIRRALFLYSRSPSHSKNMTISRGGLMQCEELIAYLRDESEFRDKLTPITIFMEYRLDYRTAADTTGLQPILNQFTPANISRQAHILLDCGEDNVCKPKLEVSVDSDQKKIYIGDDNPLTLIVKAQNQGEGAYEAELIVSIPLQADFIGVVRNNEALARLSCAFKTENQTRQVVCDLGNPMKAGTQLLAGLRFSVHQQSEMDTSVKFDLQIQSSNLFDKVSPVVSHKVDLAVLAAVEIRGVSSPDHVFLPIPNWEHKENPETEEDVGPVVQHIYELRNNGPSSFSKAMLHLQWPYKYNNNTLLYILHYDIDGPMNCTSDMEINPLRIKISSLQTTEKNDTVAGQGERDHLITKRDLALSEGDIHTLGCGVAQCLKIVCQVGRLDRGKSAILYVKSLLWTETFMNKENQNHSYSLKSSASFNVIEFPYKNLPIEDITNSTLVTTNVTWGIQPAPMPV
Chain of human αVβ3 (P05106 27-718 limits assumed): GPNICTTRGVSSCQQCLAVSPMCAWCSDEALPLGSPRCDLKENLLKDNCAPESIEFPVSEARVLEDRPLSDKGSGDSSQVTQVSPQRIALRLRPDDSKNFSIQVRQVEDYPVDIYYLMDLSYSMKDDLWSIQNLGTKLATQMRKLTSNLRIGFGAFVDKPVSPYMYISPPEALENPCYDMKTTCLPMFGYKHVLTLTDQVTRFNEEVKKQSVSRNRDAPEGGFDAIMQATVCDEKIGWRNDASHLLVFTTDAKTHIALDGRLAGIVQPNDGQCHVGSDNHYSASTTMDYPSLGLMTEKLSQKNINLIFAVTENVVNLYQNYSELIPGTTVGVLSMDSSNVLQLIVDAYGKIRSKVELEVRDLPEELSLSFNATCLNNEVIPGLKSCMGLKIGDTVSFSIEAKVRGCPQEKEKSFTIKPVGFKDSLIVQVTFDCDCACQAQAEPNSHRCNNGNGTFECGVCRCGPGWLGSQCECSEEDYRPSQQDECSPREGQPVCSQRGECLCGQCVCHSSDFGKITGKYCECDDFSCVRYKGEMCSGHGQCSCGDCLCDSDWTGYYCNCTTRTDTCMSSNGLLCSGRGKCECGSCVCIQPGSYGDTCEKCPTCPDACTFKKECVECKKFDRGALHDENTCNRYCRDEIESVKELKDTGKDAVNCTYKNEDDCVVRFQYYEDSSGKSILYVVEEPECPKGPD
Chain of human αVβ8 (P06756 31-992 limits assumed): as the sequence (P06756 31-992 limits assumed) above
Chain of human αVβ8 (P26012 43-684 limits assumed): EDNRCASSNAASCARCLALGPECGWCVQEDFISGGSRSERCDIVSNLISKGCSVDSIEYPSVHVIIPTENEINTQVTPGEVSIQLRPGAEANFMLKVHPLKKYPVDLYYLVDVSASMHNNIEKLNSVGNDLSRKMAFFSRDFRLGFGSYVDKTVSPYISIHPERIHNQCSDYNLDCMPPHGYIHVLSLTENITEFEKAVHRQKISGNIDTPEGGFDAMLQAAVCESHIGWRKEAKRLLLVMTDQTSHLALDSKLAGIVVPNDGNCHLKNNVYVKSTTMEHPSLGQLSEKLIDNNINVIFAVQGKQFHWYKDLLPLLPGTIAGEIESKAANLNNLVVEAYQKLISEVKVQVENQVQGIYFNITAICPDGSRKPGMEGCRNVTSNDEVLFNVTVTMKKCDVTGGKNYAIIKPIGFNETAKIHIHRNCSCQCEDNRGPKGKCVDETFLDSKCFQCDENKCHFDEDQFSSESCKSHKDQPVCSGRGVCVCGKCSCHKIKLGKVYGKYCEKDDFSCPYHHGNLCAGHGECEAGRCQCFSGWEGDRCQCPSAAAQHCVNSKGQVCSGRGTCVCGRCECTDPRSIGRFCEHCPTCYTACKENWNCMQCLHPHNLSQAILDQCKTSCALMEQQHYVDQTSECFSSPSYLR
Chain of human αVβ1 (P06756 31-992 limits assumed): as the sequence (P06756 31-992 limits assumed) above
Chain of human αVβ1 (P05556 21-728 limits assumed): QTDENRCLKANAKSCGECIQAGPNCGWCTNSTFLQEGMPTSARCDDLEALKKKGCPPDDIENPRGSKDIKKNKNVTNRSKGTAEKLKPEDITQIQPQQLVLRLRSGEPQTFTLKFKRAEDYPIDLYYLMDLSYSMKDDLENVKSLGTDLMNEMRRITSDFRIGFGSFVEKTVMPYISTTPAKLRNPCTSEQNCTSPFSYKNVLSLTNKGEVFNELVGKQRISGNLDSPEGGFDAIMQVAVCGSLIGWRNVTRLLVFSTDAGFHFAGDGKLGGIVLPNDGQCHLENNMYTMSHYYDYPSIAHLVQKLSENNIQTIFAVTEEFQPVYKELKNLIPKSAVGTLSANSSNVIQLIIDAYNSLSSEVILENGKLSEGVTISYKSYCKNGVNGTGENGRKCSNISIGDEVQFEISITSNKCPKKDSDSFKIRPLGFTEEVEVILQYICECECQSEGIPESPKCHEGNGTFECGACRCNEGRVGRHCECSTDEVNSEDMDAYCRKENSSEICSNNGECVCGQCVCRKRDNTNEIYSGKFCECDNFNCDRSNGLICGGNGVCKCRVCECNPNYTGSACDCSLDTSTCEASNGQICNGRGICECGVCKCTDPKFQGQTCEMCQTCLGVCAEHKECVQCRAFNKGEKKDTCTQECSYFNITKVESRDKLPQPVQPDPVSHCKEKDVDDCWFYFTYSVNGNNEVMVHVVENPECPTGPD
T1 sequence (P06756 31-992 limits assumed): as the sequence (P06756 31-992 limits assumed) above
T1 sequence (P18564 22-707 limits assumed): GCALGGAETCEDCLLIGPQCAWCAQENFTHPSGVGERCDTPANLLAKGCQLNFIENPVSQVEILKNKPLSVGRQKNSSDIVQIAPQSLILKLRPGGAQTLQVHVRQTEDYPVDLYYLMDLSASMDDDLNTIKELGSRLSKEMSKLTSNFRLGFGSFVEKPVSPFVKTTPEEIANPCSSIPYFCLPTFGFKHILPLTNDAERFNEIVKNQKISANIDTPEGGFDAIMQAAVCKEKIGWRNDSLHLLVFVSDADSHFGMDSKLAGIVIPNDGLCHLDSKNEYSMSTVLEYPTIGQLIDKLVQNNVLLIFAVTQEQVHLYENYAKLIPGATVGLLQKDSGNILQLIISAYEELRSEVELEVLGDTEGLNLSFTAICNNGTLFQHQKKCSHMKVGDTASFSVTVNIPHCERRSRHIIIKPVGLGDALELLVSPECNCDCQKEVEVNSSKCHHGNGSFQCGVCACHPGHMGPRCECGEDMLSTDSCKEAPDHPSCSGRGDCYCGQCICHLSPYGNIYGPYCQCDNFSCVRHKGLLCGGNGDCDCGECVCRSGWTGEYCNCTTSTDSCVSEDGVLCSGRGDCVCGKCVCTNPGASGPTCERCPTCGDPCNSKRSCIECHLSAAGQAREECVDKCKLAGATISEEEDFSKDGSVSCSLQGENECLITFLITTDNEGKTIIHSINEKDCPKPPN
Chain of human αVβ5 (P06756 31-992 limits assumed): as the sequence (P06756 31-992 limits assumed) above
Chain of human αVβ5 (P18084 24-719 limits assumed): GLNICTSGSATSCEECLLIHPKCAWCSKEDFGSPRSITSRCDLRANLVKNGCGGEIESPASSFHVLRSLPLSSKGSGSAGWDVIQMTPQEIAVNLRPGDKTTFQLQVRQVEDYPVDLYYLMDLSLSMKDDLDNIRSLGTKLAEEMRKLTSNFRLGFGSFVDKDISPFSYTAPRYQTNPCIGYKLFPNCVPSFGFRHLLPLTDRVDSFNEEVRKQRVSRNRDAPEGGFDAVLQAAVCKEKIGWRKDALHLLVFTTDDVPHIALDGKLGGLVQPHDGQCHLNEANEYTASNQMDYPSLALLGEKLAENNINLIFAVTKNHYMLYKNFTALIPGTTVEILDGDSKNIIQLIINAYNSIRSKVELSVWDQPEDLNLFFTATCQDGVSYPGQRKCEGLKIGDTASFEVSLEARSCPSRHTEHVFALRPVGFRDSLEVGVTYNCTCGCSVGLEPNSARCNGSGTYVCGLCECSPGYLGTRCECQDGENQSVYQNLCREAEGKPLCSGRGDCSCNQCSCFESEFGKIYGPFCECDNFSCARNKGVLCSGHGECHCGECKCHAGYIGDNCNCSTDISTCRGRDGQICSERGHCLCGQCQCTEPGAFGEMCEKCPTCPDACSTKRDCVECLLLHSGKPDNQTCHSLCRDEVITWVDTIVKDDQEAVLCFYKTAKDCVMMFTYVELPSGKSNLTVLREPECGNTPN

One may read the IC50 as the concentration needed to halve the response being measured. In the case of `O=C(O)CC(c1cnc2ccccc2n1)n1ncc2cc(OCCc3ccc4c(n3)NCCC4)ccc21` (racemic) [Example 15, (±)-3-(Quinoxalin-2-yl)-3-(5-(2-(5,6,7,8-tetrahydro-1,8-naphthyridin-2-yl)ethoxy)-1H-indazol-1-yl)propanoic acid], the IC50 on human αVβ8 worked out at 1500 nM; at human αVβ6, 6 nM; at human αVβ1, 270 nM; on human αVβ5, 0.31 nM; at human αVβ3, 2.7 nM.
For `O=C(O)C[C@@H](c1cnc2ccccc2n1)n1ncc2cc(OCCc3ccc4c(n3)NCCC4)ccc21` [Example 17, (S)-3-(quinoxalin-2-yl)-3-(5-(2-(5,6,7,8-tetrahydro-1,8-naphthyridin-2-yl)ethoxy)-1H-indazol-1-yl)propanoic acid], the IC50 at human αVβ8 was 1900 nM; on human αVβ6, 4.2 nM; at human αVβ1 it was 190 nM; at human αVβ5 it was 0.25 nM; on human αVβ3 it was 2.1 nM.
Taken in the same sequence, the figures for `COc1ccc(C(CC(=O)O)n2ncc3cc(OCCc4ccc5c(n4)NCCC5)ccc32)cn1` (stereo not shown) [Example 34, 3-(6-Methoxypyridin-3-yl)-3-(5-(2-(5,6,7,8-tetrahydro-1,8-naphthyridin-2-yl)ethoxy)-1H-indazol-1-yl)propanoic acid, TFA] were 1300 nM, 12 nM, 95 nM, 0.38 nM and 2.5 nM.
Taken in the same sequence, the figures for `COc1ccc([C@H](CC(=O)O)n2ncc3cc(OCCc4ccc5c(n4)NCCC5)ccc32)cn1` [Example 41, (S)-3-(6-Methoxypyridin-3-yl)-3-(5-(2-(5,6,7,8-tetrahydro-1,8-naphthyridin-2-yl)ethoxy)-1H-indazol-1-yl)propanoic acid] were 510 nM, 6.2 nM, 83 nM, 0.22 nM and 2.3 nM.
For the compound `O=C(O)CC(c1cnc2ccccc2c1)n1ncc2cc(OCCc3ccc4c(n3)NCCC4)ccc21` (stereo not shown) [Example 48, 3-(Quinolin-3-yl)-3-(5-(2-(5,6,7,8-tetrahydro-1,8-naphthyridin-2-yl)ethoxy)-1H-indazol-1-yl)propanoic acid, TFA], the half-inhibitory concentration (IC50) is 4400 nM on human αVβ8; 5.5 nM at human αVβ6; 270 nM at human αVβ1; 0.54 nM on human αVβ5; 3.8 nM at human αVβ3.
Turning to `COc1ccc([C@H](CC(=O)O)n2cc3ccc(CCC4CCc5cccnc5N4)cc3n2)cn1` (stereo partly drawn) [Example 72, (3S)-3-(6-Methoxypyridin-3-yl)-3-(6-(2-(1,2,3,4-tetrahydro-1,8-naphthyridin-2-yl)ethyl)-2H-indazol-2-yl)propanoic acid], the IC50 turned out to be 3200 nM on human αVβ8; 8.2 nM at human αVβ6; 740 nM at human αVβ1; 1.5 nM at human αVβ5; 4.4 nM at human αVβ3.
With `CCOc1ncc(C(CC(=O)O)n2ncc3cc(OCCc4ccc5c(n4)NCCC5)ccc32)cn1` (stereo not shown) [Example 77, 3-(2-Ethoxypyrimidin-5-yl)-3-(5-(2-(5,6,7,8-tetrahydro-1,8-naphthyridin-2-yl)ethoxy)-1H-indazol-1-yl)propanoic acid, TFA], the IC50 at human αVβ8 is 5000 nM; at human αVβ6, 5.8 nM; on human αVβ1, 170 nM; at human αVβ5, 0.39 nM; at human αVβ3, 2.8 nM.
Taken in the same sequence, the figures for `O=C(O)C[C@@H](c1cnc2ccccc2c1)n1cc2ccc(CCC3CCc4cccnc4N3)cc2n1` (stereo partly drawn) [Example 83, (3S)-3-(Quinolin-3-yl)-3-(6-(2-(1,2,3,4-tetrahydro-1,8-naphthyridin-2-yl)ethyl)-2H-indazol-2-yl)propanoic acid] were 5000 nM, 4.7 nM, 360 nM, 2.2 nM and 4.1 nM.
Taken in the same sequence, the figures for `O=C(O)C[C@@H](c1cnc2ccccc2c1)n1cc2ccc(CCCc3ccc4c(n3)NCCC4)cc2n1` [Example 87, (S)-3-(Quinolin-3-yl)-3-(6-(3-(5,6,7,8-tetrahydro-1,8-naphthyridin-2-yl)propyl)-2H-indazol-2-yl)propanoic acid] were 3300 nM, 1.3 nM, 10000 nM, 3.2 nM and 2.3 nM.
With `O=C(O)CC(c1cncc(CO)c1)n1ncc2cc(OCCc3ccc4c(n3)NCCC4)ccc21` (stereo not shown) [Example 89, 3-(5-(Hydroxymethyl)pyridin-3-yl)-3-(5-(2-(5,6,7,8-tetrahydro-1,8-naphthyridin-2-yl)ethoxy)-1H-indazol-1-yl)propanoic acid], the IC50 is 5000 nM at human αVβ8; 19 nM on human αVβ6; 370 nM on human αVβ1; 0.42 nM at human αVβ5; 3.1 nM on human αVβ3.
As to `O=C(O)CC(c1cnc2nccnc2c1)n1ncc2cc(OCCc3ccc4c(n3)NCCC4)ccc21` (stereo not shown) [Example 95, 3-(Pyrido[2,3-b]pyrazin-7-yl)-3-(5-(2-(5,6,7,8-tetrahydro-1,8-naphthyridin-2-yl)ethoxy)-1H-indazol-1-yl)propanoic acid, 2 TFA], the IC50 at human αVβ8 amounted to 7600 nM; on human αVβ6 it was 30 nM; on human αVβ1, 210 nM; on human αVβ3 it was 2.4 nM.
For `O=C(O)CC(c1cnc2ncccc2c1)n1ncc2cc(OCCc3ccc4c(n3)NCCC4)ccc21` (stereo not shown) [Example 101, 3-(1,8-Naphthyridin-3-yl)-3-(5-(2-(5,6,7,8-tetrahydro-1,8-naphthyridin-2-yl)ethoxy)-1H-indazol-1-yl)propanoic acid, 2 TFA] the same measures were 2300 nM, 5.7 nM, 100 nM and 1.6 nM.
For `O=C(O)CC(c1cncc(N2CCCC2=O)c1)n1ncc2cc(OCCc3ccc4c(n3)NCCC4)ccc21` (stereo not shown) [Example 102, 3-(5-(2-Oxopyrrolidin-1-yl)pyridin-3-yl)-3-(5-(2-(5,6,7,8-tetrahydro-1,8-naphthyridin-2-yl)ethoxy)-1H-indazol-1-yl)propanoic acid, 2 TFA] the same measures were 1300 nM, 4.3 nM, 39 nM and 2.2 nM.
For `O=C(O)CC(c1cnc2c(c1)OCCO2)n1ncc2cc(OCCc3ccc4c(n3)NCCC4)ccc21` (stereo not shown) [Example 109, 3-(2,3-Dihydro-[1,4]dioxino[2,3-b]pyridin-7-yl)-3-(5-(2-(5,6,7,8-tetrahydro-1,8-naphthyridin-2-yl)ethoxy)-1H-indazol-1-yl)propanoic acid, 2 TFA] the same measures were 9300 nM, 15 nM, 62 nM and 1.3 nM.
As to `CNc1ncc(C(CC(=O)O)n2ncc3cc(OCCc4ccc5c(n4)NCCC5)ccc32)cn1` (stereo not shown) [Example 112, 3-(2-(Methylamino)pyrimidin-5-yl)-3-(5-(2-(5,6,7,8-tetrahydro-1,8-naphthyridin-2-yl)ethoxy)-1H-indazol-1-yl)propanoic acid, 2 TFA], the IC50 on human αVβ8 is 5000 nM; on human αVβ6, 21 nM; on human αVβ1, 93 nM; at human αVβ3, 2.9 nM.

(Values after patent publication US10745384B2, “Indazole derivatives as αv integrin antagonists” (BRISTOL-MYERS SQUIBB COMPANY, priority 2016, dated 2020).)
